Assay results reported in article PMC4369398 (Journal of colloid and interface science, 2014).

Columns and labels:
Self-assembly in water = format: physicochemical; conditions: for diameter (width) of self-assembled nanofibers: TEM, pH 7.0, 2.0 wt %, direct self-assembly without enzyme; for appearance / state in water: pH 7.0, 2.0 wt % concentration, optical image, for 2 via pH adjustment
CD73 = molecular target: T1, CD73 (Homo sapiens, UniProt P21589)
T1 sequence (P21589 27-574): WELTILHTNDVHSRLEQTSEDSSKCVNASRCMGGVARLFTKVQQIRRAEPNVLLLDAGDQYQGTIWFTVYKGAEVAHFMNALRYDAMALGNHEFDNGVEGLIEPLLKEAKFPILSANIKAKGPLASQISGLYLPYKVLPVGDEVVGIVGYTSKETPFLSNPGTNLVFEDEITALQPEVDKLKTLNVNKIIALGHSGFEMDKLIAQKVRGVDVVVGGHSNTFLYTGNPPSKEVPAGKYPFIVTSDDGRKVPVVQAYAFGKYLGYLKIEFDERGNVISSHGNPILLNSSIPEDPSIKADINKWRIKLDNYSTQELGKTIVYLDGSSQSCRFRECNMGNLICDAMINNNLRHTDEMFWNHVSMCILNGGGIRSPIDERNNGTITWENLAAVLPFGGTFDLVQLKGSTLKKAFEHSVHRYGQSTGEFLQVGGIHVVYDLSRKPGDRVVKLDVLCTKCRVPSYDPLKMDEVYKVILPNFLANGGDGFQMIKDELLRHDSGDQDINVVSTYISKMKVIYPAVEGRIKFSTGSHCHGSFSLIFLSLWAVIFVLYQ

Structure (SMILES): O=C(Cc1ccc2ccccc2c1)N[C@H](Cc1ccccc1)C(=O)N[C@H](Cc1ccccc1)C(=O)N[C@H](CCCCNc1ncnc2c1ncn2[C@@H]1O[C@H](COP(=O)(O)O)[C@@H](O)[C@H]1O)C(=O)O [compound 1, naphthalene-D-Phe-D-Phe-D-Lys(AMP)]
- diameter (width) of self-assembled nanofibers (Self-assembly in water): 8 ± 1 nm
- appearance / state in water (Self-assembly in water): transparent solution
- hydrogel formation on adding CD73 (CD73; 1 μg of CD73 added to 0.5 mL of 2 wt % solution, 37 °C, pH 7.0): hydrogel formation after three days
- diameter of nanofibers of the CD73-formed hydrogel (CD73; TEM, after CD73 treatment, pH 7.0, 2.0 wt %): 8 ± 1 nm

Structure (SMILES): O=C(Cc1ccc2ccccc2c1)N[C@H](Cc1ccccc1)C(=O)N[C@H](Cc1ccccc1)C(=O)N[C@H](CCCCNc1ncnc2c1ncn2[C@@H]1O[C@H](CO)[C@@H](O)[C@H]1O)C(=O)O [compound 2, naphthalene-D-Phe-D-Phe-D-Lys(adenosine)]
- diameter (width) of self-assembled nanofibers (Self-assembly in water): 5 ± 1 nm
- appearance / state in water (Self-assembly in water): transparent hydrogel
